From article PMC12476453, “Chemosensation of the pheromone spermine by the olfactory TAAR-like receptor TAAR348” (Cell Discovery, 2025)

Target: T1, TAAR348 (Petromyzon marinus, UniProt A0A678XLR1)
T1 construct: TAAR-like GPCR overexpressed in HEK293 cells with Gs BRET2 sensors; cryo-EM complex with Gs (Gαs, Gβ, Gγ), NB35 and ScFv16; construct details only in supplement
T1 sequence (A0A678XLR1 1-348): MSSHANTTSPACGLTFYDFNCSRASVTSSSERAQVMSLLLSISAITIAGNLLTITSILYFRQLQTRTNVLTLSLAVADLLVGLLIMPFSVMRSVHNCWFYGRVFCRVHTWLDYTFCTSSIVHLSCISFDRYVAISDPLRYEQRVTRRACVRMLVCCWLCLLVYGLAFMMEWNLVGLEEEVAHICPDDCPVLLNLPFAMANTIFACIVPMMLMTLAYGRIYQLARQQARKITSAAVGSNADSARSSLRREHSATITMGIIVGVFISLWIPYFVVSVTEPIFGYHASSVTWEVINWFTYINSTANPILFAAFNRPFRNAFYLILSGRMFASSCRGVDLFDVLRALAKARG
Experiment: BRET2 G protein trimer dissociation assay (Gs)
Type: cell-based

## NCCCNCCCCNCCCN [spermine]
  EC50: 155 ± 6.9 nM
